Publication PMC11360128, “Rigid Macrocycle Metal Complexes as CXCR4 Chemokine Receptor Antagonists: Influence of Ring Size” (Pharmaceutics, 2024)
Where two headings read alike, the source gives them in different places.

Tests used:
[1] = test system: HIV-1 NL4-3 (X4); experiment: HIV infection assay, Tat-regulated luciferase reporter in TZM-bl cells, CXCR4-using strain; format: cell-based; details: replication of HIV-1 NL4-3 (X4) in TZM-bl cells, mean ± SEM, read-out: Anti-HIV Activity IC50 NL4-3 (X4)
Source text: (§1) Buffy coat preparations from healthy donors were obtained from the Blood Bank in Leuven, Belgium. For the chemokine binding studies, peripheral blood mononuclear cells (PBMCs) activated with phytohemagglutinin (PHA; Sigma, Belgium) were used. Human T-lymphocytic SUP-T1 cells and TZM-bl cells were obtained from the American Type Culture Collection (Rockville, MD) and maintained in RPMI-1640 supplemented with 10% foetal bovine serum (FBS). Human glioblastoma U87.MG and U87.CD4 cells were kindly provided by Dr. D. Littman and used to generate cells expressing CXCR4 or CCR5 [48]. The fluorescent chemokines CXCL12^AF647 and CCL5^AF647 were purchased from Almac. […]
(§2) TZM-bl cells were seeded in transparent 96-well plates at 1 × 10^4 cells per well in DMEM (Dulbecco’s modified Eagle medium; Life Technologies, Waltham, MA, USA) with 10% FBS and 10 mM HEPES. […] After 48 h of incubation, the assay plates were analysed. […] The luminescent signal of the lysed cell suspension was analysed in white 96-well plates on a Spectra-Max L luminescence microplate reader (Molecular Devices, Sunnyvale, CA, USA) after a 10 min incubation period in the dark. Luciferase activity induced by HIV-1 Tat protein expression was measured as an assessment of the amount of HIV replication. […]

[2] = test system: HIV-1 BaL (R5); experiment: microbe, parasite or virus in culture; details: read-out: Anti-HIV Activity IC50 BaL (R5)
Source text: as §1, §2

[3] = target: T1, CCR5 (Homo sapiens, UniProt P51681); experiment: CCL3L1-induced intracellular calcium mobilisation in CCR5-transfected U87 cells (FLIPR); format: cell-based; details: mean ± SEM, read-out: Ca^2+ Signalling Assay IC50 CCL3L1
T1 construct: endogenous in cells
Experimental: CXCR4- or CCR5-positive U87 glioblastoma/astrocytoma cells were loaded with the fluorescent calcium indicator Fluo-3 acetoxymethyl (Molecular Probes) at 4 µM in the assay buffer (Hanks’ balanced salt solution with 20 mM HEPES buffer and 0.2% bovine serum albumin, pH 7.4) for 45 min at room temperature. After thorough washing with the assay buffer, cells were pre-incubated for 10 min at 37 °C in the same buffer with the compounds of interest. The intracellular calcium mobilisation in response to CXCL12 (CXCR4 chemokine ligand) or CCL3L1 (CCR5 chemokine ligand) was then measured at 37 °C by monitoring the fluorescence as a function of time simultaneously in all the wells by using a fluorometric imaging plate reader (FLIPR; Molecular Devices, Sunnyvale, CA, USA).
The potency of the different metal complexes was investigated in a functional downstream receptor signalling assay. The inhibitory effect of the tested compounds was examined by Ca^2+ mobilisation studies with the natural ligands CXCL12 and CCL3L1 for the chemokine receptors CXCR4 and CCR5, respectively. The Ca^2+ ions released from the endoplasmic reticulum were measured over time in CXCR4- or CCR5-transfected U87 glioblastoma cells via their specific interaction with the fluorescent Ca^2+ indicator Fluo-3 [63].

[4] = test system: PHA-stimulated PBMCs; experiment: Cellular cytotoxicity, microscopic evaluation and MTS assay; format: cell-based, human; details: 48 h, MTS, read-out: Toxicity CC50 PMBCs
Source text: (§3) Buffy coat preparations from healthy donors were obtained from the Blood Bank in Leuven, Belgium. For the chemokine binding studies, peripheral blood mononuclear cells (PBMCs) activated with phytohemagglutinin (PHA; Sigma, Belgium) were used. Human T-lymphocytic SUP-T1 cells and TZM-bl cells were obtained from the American Type Culture Collection (Rockville, MD) and maintained in RPMI-1640 supplemented with 10% foetal bovine serum (FBS). Human glioblastoma U87.MG and U87.CD4 cells were kindly provided by Dr. D. Littman and used to generate cells expressing CXCR4 or CCR5 [48]. The fluorescent chemokines CXCL12^AF647 and CCL5^AF647 were purchased from Almac. […] HIV-1 NL4-3 (CXCR4-using, X4) and HIV-1 BaL (CCR5-using, R5) were obtained through the AIDS Research and Reference Reagent Program (Division of AIDS, NIAID, NIH).
(§4) Cytotoxicity of the compounds was evaluated after 48 h of incubation at 37 °C in PHA-stimulated PBMCs (5 × 10^5 cells per well in culture medium). Each condition was tested in duplicate. Cytotoxicity was evaluated microscopically, and in addition, the cell viability was assessed using the colorimetric CellTiter 96 AQueous One Solution Cell Proliferation Assay (Promega, Fitchburg, WI, USA), which is based on the reduction of the tetrazolium salt MTS [3-(4,5-dimethylthiazol-2-yl)-5-(3-carboxymethoxyphenyl)-2-(4-sulfophenyl)-2H-tetrazolium] to formazan by metabolically active cells. Absorbance at 490 nm was measured with the Versa-Max ELISA microplate reader (Molecular Devices, Sunnyvale, CA, USA). The cytotoxic concentration 50 (CC50) of each compound was calculated based on the absorbance of negative (i.e., cells without compound) and positive (i.e., only culture medium) control samples.
(§5) The cellular cytotoxicity of all compounds was evaluated in PHA-stimulated PBMCs.

[5] = as above; format: cell-based, human; details: human, PHA-stimulated PBMCs, MTS, read-out: Toxicity CC50 PMBCs
Source text: as §3, §4, §5

[6] = target: T1, CCR5; experiment: CCL5^AF647 chemokine binding inhibition assay in PBMCs; details: AF647-labelled CCL5 in PBMCs; mean ± SEM; read-out: Competition Binding Assay IC50 CCL5
Experimental: Human PBMCs were washed once with assay buffer (Hanks’ balanced salt solution with 20 mM HEPES buffer and 0.2% bovine serum albumin, pH 7.4) and then incubated for 15 min at room temperature with the sample diluted in assay buffer at the indicated concentrations. Subsequently, CXCL12^AF647 (25 ng/mL) or CCL5^AF647 (50 ng/mL) was added to the compound-incubated cells. The cells were incubated for 30 min at room temperature. Thereafter, the cells were washed twice in assay buffer, fixed in 1% paraformaldehyde in PBS, and analysed on the FL4 channel of a FACSCalibur flow cytometer equipped with a 635 nm red diode laser (Becton Dickinson, San Jose, CA, USA). The percentage of inhibition of CXCL12^AF647 or CCL5^AF647 binding was calculated according to the formula: [1 − ((MFI − MFINC)/(MFIPC − MFINC))] × 100, where MFI is the mean fluorescence intensity of the cells incubated with CXCL12^AF647 or CCL5^AF647 in the presence of the inhibitor, MFINC is the mean fluorescence intensity measured in the negative control (i.e., autofluorescence of unlabelled cells), and MFIPC is the mean fluorescence intensity of the positive control (i.e., cells exposed to CXCL12^AF647 or CCL5^AF647 alone).
Binding affinity and selectivity towards CXCR4 were further evaluated through competition binding assays using natural chemokine ligands, tagged with Alexa Fluor 647, as previously reported. […]

T1 sequence (P51681 whole entry): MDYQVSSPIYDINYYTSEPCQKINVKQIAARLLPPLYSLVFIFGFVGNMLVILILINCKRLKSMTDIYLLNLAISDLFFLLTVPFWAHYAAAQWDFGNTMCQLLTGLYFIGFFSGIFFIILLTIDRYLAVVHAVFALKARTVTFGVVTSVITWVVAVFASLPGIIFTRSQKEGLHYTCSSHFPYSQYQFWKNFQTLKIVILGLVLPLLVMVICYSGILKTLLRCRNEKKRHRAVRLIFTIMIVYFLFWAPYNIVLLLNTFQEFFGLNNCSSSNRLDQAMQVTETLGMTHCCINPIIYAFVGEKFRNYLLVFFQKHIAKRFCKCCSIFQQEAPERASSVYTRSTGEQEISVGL

In the case of `c1cc(CN2CCCNCCNCCCNCC2)ccc1CN1CCCNCCNCCCNCC1` [AMD3100, reference compound], the IC50 ([1]; Human immunodeficiency virus 1, NL43) is reported as 0.00042 ± 0.00014 µM, the IC50 ([2]; Human immunodeficiency virus 1, BAL, TZM-bl) is reported as > 20 µM and the IC50 [3] is reported as > 20 µM. The CC50 [4] was > 100 µM, the CC50 at 48 h [5] was ≥ 100 µM and the IC50 [6] was > 1 µM.

For `[Cu+2].[Cu+2].c1cc(CN2CCCNCCNCCCNCC2)ccc1CN1CCCNCCNCCCNCC1` [Cu2L^1], the CC50 [4] was ≥ 100 µM.

For Maraviroc [reference compound], the IC50 [1] was > 20 µM and the IC50 ([2]; replication of HIV-1 BaL (R5) in TZM-bl cells, mean ± SEM) was 0.0029 ± 0.0012 µM.
